Results taken from the supplement of paper PMC11061612.

Tests used:
Experiment in all cases: combination Emax (second highest fraction inhibited in the dose matrix, 72 h); higher = more inhibition; extreme values may be limits of the assay
[1] = tested on: DND-41 (T-Lymphoblastic Leukemia)
Procedure, shortened: (§1)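 Cell lines in DMEM/F12 or RPMI with 10% FBS were plated in 1536-well plates, held 24 hours at 37°C, 5% CO2, then given two-drug dose matrices for 72 hours (DMSO typically 0.2%). Viability was read by CellTiter-Glo 2.0 luminescence and scaled as inhibition from 0 (vehicle wells) to 1 (blank wells). Combination Emax is the second-highest inhibition in the matrix; Bliss excess is observed combination effect minus expected EA + EB − EA·EB, EA and EB being single-agent effects.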

[2] = tested on: BFTC-905 (Bladder Carcinoma)
Procedure, shortened: as §1

[3] = tested on: KYSE-180 (Esophageal Squamous Cell Carcinoma)
Procedure, shortened: as §1

[4] = tested on: L-540 (Hodgkin's Lymphoma)
Procedure, shortened: as §1

TC-71 (Ewing's Sarcoma) = tested on: TC-71 (Ewing's Sarcoma)
Procedure, shortened: as §1

[5] = tested on: COLO-678 (Colorectal Carcinoma)
Procedure, shortened: as §1

[6] = tested on: KCL-22 (Chronic Myelogenous Leukemia)
Procedure, shortened: as §1

MEL-JUSO (Melanoma) = tested on: MEL-JUSO (Melanoma)
Procedure, shortened: as §1

[7] = tested on: P12-ICHIKAWA (T-Lymphoblastic Leukemia)
Procedure, shortened: as §1

WIL2-NS (Non-Cancerous) = tested on: WIL2-NS (Non-Cancerous)
Procedure, shortened: as §1

[8] = tested on: MOLT-16 (T-Lymphoblastic Leukemia)
Procedure, shortened: as §1

[9] = tested on: PANC-08-13 (Pancreatic Carcinoma)
Procedure, shortened: as §1

U251 (Low Grade Glioma) = tested on: U251 (Low Grade Glioma)
Procedure, shortened: as §1

NCI-H2818 (Mesothelioma) = tested on: NCI-H2818 (Mesothelioma)
Procedure, shortened: as §1

LN-18 (Glioblastoma) = tested on: LN-18 (Glioblastoma)
Procedure, shortened: as §1

ES1 (Ewing's Sarcoma) = tested on: ES1 (Ewing's Sarcoma)
Procedure, shortened: as §1

[10] = tested on: TOV-112D (Ovarian Carcinoma)
Procedure, shortened: as §1

[11] = tested on: MFM-223 (Breast Carcinoma)
Procedure, shortened: as §1

[12] = tested on: SW1417 (Colorectal Carcinoma)
Procedure, shortened: as §1

[13] = tested on: EVSA-T (Breast Carcinoma)
Procedure, shortened: as §1

Structure (SMILES) | combination Emax [1] | combination Emax [2] | combination Emax [3] | combination Emax [4] | combination Emax (TC-71 (Ewing's Sarcoma)) | combination Emax [5] | combination Emax [6] | combination Emax (MEL-JUSO (Melanoma)) | combination Emax [7] | combination Emax (WIL2-NS (Non-Cancerous)) | combination Emax [8] | combination Emax [9] | combination Emax (U251 (Low Grade Glioma)) | combination Emax (NCI-H2818 (Mesothelioma)) | combination Emax (LN-18 (Glioblastoma)) | combination Emax (ES1 (Ewing's Sarcoma)) | combination Emax [10] | combination Emax [11] | combination Emax [12] | combination Emax [13]
CC(=O)c1c(C)c2cnc(Nc3ccc(N4CCNCC4)cn3)nc2n(C2CCCC2)c1=O [Palbociclib] + CC1(C)CCC(CN2CCN(c3ccc(C(=O)NS(=O)(=O)c4ccc(NCC5CCOCC5)c([N+](=O)[O-])c4)c(Oc4cnc5[nH]ccc5c4)c3)CC2)=C(c2ccc(Cl)cc2)C1 [Venetoclax] (first compound max 10 µM, 7x7, partner max 1 µM) | 0.45 | 0.326 | 0.188 | 0.257 | 0.272 | 0.222 | 0.513 | 0.143 | 0.671 | 0.727 | 0.985 | 0.157 | 0.153 | 0.203 | 0.383 | 0.56 | 0.443 | 0.346 | 0.147 | 0.209
Cc1c2c(nn1C)CSCc1cc(n(C)n1)CSc1cc(c3ccccc3c1)OCCCc1c(C(=O)O)n(C)c3c-2c(Cl)ccc13 [AZD5991] + CC1(C)CCC(CN2CCN(c3ccc(C(=O)NS(=O)(=O)c4ccc(NCC5CCOCC5)c([N+](=O)[O-])c4)c(Oc4cnc5[nH]ccc5c4)c3)CC2)=C(c2ccc(Cl)cc2)C1 [Venetoclax] (first compound max 1 µM, 7x7, partner max 1 µM) | 0.418 | 0.604 | 0.922 | 1 | 0.831 | 0.0393 | 0.928 | 0.339 | 1 | 0.23 | 1 | 0.116 | 0.239 | 0.387 | 0.374 | 0.93 | 0.777 | 0.276 | 0.191 | 1
Cc1c2c(nn1C)CSCc1cc(n(C)n1)CSc1cc(c3ccccc3c1)OCCCc1c(C(=O)O)n(C)c3c-2c(Cl)ccc13 [AZD5991] + Cc1cc2ncnn2cc1Nc1ncc2c(n1)n(C1CCOCC1)c(=O)n2C [AZD7648] (first compound max 1 µM, 7x7, partner max 10 µM) | 0.164 | 0.211 | 0.9 | 1 | 0.48 | 0.152 | 0.94 | 0.277 | 1 | 0.41 | 1 | 0.238 | 0.229 | 0.48 | 0.35 | 0.798 | 0.492 | 0.288 | 0.297 | 1
Cc1c2c(nn1C)CSCc1cc(n(C)n1)CSc1cc(c3ccccc3c1)OCCCc1c(C(=O)O)n(C)c3c-2c(Cl)ccc13 [AZD5991] + C[C@@H](Nc1cc(F)cc(F)c1)c1cc(C(=O)N(C)C)cc2c(=O)cc(N3CCOCC3)oc12 [AZD8186] (first compound max 1 µM, 7x7, partner max 3 µM) | 0.0838 | 0.289 | 0.877 | 1 | 0.573 | 0.278 | 0.87 | 0.527 | 0.964 | 0.337 | 1 | 0.263 | 0.226 | 0.387 | 0.573 | 0.904 | 0.35 | 0.258 | 0.275 | 1
